Like-named read-outs stand apart in the source and are kept apart here.
Key:
[1] = system: Con-NCI-H82 cell; assay: Cell viability (Promega CellTiter-Glo, intracellular ATP), IC50 on Con-NCI-H82 cell; format: cell-based; conditions: Homo sapiens; normal untreated NCI-H82 cell (control)
Text: (§1) The expression of NNMT protein in NCI-H82 cell was overexpressed by inserting the NNMT gene into NCI-H82 cell using a viral vector, and the NNMT protein-overexpressing NCI-H82 cell (ov-NNMT NCI-H82 cell) was obtained. The normal and untreated NCI-H82 cell (Con-NCI-H82 cell) was used as control. The expressing content of NNMT protein in the ov-NNMT NCI-H82 cell and Con-NCI-H82 cell was detected using Western Blot assay (as shown in FIG. 1), it could be seen from FIG. 1 that the NNMT protein was overexpressed in the ov-NNMT NCI-H82 cell compared with the expression level of NNMT protein in the Con-NCI-H82 cell.
(§2) The cell viability was detected using the Promega CellTiter-Glo kit which reflected cell viability by measuring intracellular ATP content. The Con-NCI-H82 cell and ov-NNMT NCI-H82 cell was cultured in 10% fetal bovine serum-containing RPMI1640 medium (+P/S).

[2] = system: ov-NNMT NCI-H82 cell; assay: Cell viability (Promega CellTiter-Glo, intracellular ATP), IC50 on NNMT-overexpressing NCI-H82 cell; format: cell-based; conditions: Homo sapiens; NCI-H82 cell overexpressing NNMT protein
Text: as §1, §2

[3] = system: mPTP-active Daoy cell; assay: Cell viability (Promega CellTiter-Glo), IC50 on mPTP-active Daoy cell; format: cell-based; conditions: Homo sapiens; Daoy cell transfected with empty virus vector
[4] = system: mPTP-inactive Daoy cell; assay: Cell viability (Promega CellTiter-Glo), IC50 on mPTP-inactive Daoy cell (PPIF shRNA); format: cell-based; conditions: Homo sapiens; Daoy cell transfected with PPIF shRNA vector
[5] = system: mitochondria permeability transition pore (mPTP); assay: Mitochondria membrane potential difference by TMRM in Daoy cell; format: cell-based, human; conditions: CsA −, H2O2 +, untreated = 100
[6] = system: mitochondria permeability transition pore (mPTP); format: cell-based, human; conditions: Daoy cell with empty virus vector; CsA −, H2O2 +; untreated = 100
[7] = system: mitochondria permeability transition pore (mPTP); conditions: Daoy cell with PPIF shRNA vector; CsA −, H2O2 +; untreated = 100

SMILES | IC50 [1] [nM] | IC50 [2] [nM] | IC50 [3] [nM] | IC50 [4] [nM] | Relative TMRM signal intensity (%), mean value [5] [%] | Relative TMRM signal intensity (%), mean value [6] [%] | Relative TMRM signal intensity (%), mean value [7] [%]
CN1c2nc[n+](C3CCc4ccc(Cl)cc4C3=O)cc2CCC1c1ccccc1 (centres unmarked) [AB27198] | 700 | 3550 | 7550 | 1890 |  |  | 
O=C1c2sccc2CCC1[n+]1ccc2c(ccn2Cc2ccccc2)c1 (centres unmarked) [AB27200] | 1120 | 5680 | 6030 | 2150 |  |  | 
Cc1c2ccn(Cc3ccccc3)c2cc[n+]1C1CCc2ccc(Cl)cc2C1=O (centres unmarked) [AB27219] | 85 | 1320 | 5090 | 2120 |  |  | 
CC(=O)N(Cc1ccccc1)c1cc[n+](CC(=O)c2ccc(C)cc2)c(C)c1 [AB27222] | 56 | 857 | 1750 | 660 |  |  | 
CC(=O)N(Cc1ccccc1)c1cc[n+](C2CCc3ccc(Cl)cc3C2=O)cc1 (centres unmarked) [AB27230] | 126 | 1260 | 2920 | 920 |  |  | 
CCCCn1ccc2c[n+](C3CCc4ccc(Cl)cc4C3=O)ccc21 (centres unmarked) [AB27251] | 482 | 2680 | 7890 | 1960 |  |  | 
Cc1ccc(C(=O)Cn2ccc3c[n+](Cc4ccccc4)cc(C)c32)cc1 [AB27256] | 22 | 253 | 330 | 120 |  |  | 
Cc1c[n+](Cc2ccccc2)cc2ccn(CC(=O)c3cccc(Cl)c3)c12 [AB27257] | 75 | 968 | 2160 | 880 |  |  | 
Cc1ccc(C(=O)Cn2ccc3c[n+](C(C)c4ccccc4)ccc32)cc1 (centres unmarked) [AB27261] | 23 | 381 | 380 | 180 |  |  | 
Cc1ccc(C(=O)Cn2c(C)cc3c[n+](Cc4ccccc4)ccc32)cc1 [AB27277] | 15 | 245 | 160 | 30 |  |  | 
Cc1ccc(C(=O)CNc2cc[n+](Cc3ccccc3)cc2)cc1 [AB27283] | 874 | 3380 | 10600 | 3240 |  |  | 
Cc1ccc(C(=O)C[n+]2ccc(N3CCc4ccccc43)cc2C)cc1 [AB27306] | 737 | 5460 | 9910 | 3230 |  |  | 
Cc1ccc(C(=O)C[n+]2ccc(N3CCCCC3)cc2)cc1 [AB27309] | 837 | 4860 | 8580 | 3370 |  |  | 
O=C1c2cc(Cl)ccc2CCC1n1ccc2c[n+](CC3CCCC3)ccc21 (centres unmarked) [AB27316] | 167 | 1130 | 5890 | 1170 |  |  | 
Cc1ccc(C(=O)C[n+]2ccc(NCc3ccccc3)cc2C)c(F)c1 [AB27325] | 22 | 268 | 2010 | 380 |  |  | 
Cn1cc(Cc2ccccc2)c2cc[n+](C3CCc4ccc(C(F)(F)F)cc4C3=O)cc21 (centres unmarked) [AB27338] | 391 | 2360 | 6620 | 2090 |  |  | 
O=C1c2sccc2CCC1n1ccc2c[n+](Cc3ccccc3)ccc21 (centres unmarked) [AB27345] | 76 | 904 | 6690 | 2040 |  |  | 
O=C1c2cc(F)ccc2CCC1[n+]1cnc2c(ccn2Cc2ccccc2)c1 (centres unmarked) [AB27355] | 121 | 1020 | 5920 | 1170 |  |  | 
O=C1c2cc(F)ccc2CCC1[n+]1ccc2c(ccn2Cc2ccccc2)c1 (centres unmarked) [AB27356] | 130 | 1740 | 5540 | 940 |  |  | 
Cc1cc2c[n+](Cc3ccccc3)ccc2n1CC(=O)c1cccc(OC(F)(F)F)c1 [AB27455] | 22 | 265 | 360 | 110 |  |  | 
Cc1cc2c[n+](Cc3ccccc3)ccc2n1CC(=O)c1cccc(C(F)(F)F)c1 [AB27456] | 22 | 383 | 380 | 130 |  |  | 

SMILES | IC50 [1] [nM] | IC50 [2] [nM] | IC50 [3] [nM] | IC50 [4] [nM] | Relative TMRM signal intensity (%), mean value [5] [%] | Relative TMRM signal intensity (%), mean value [6] [%] | Relative TMRM signal intensity (%), mean value [7] [%]
Cc1cn(CC(=O)c2cccc(OC(F)(F)F)c2)c2cc[n+](Cc3ccccc3)cc12 [AB27457] | 417 | 6610 | 8610 | 2160 |  |  | 
Cc1cn(CC(=O)c2cccc(C(F)(F)F)c2)c2cc[n+](Cc3ccccc3)cc12 [AB27458] | 748 | 7720 | 10300 | 3010 |  |  | 
Cc1cn(C2CCc3ccc(F)cc3C2=O)c2cc[n+](C(C)c3ccccc3)cc12 (centres unmarked) [AB27459] | 86 | 1240 | 2430 | 840 |  |  | 
Cc1cn(CC(=O)c2ccc(C(F)(F)F)cc2)c2cc[n+](Cc3ccccc3)cc12 [AB27463] | 2060 | 10600 | 10600 | 4760 |  |  | 
Cc1cn(Cc2ccccc2)c2cc[n+](C3CCc4ccc(F)cc4C3=O)cc12 (centres unmarked) [AB27470] | 112 | 2430 | 3230 | 930 |  |  | 
CC(c1ccccc1)n1cc2cc[n+](C3CCc4ccc(Cl)cc4C3=O)cc2c1 (centres unmarked) [AB27481] | 228 | 2730 | 2720 | 650 |  |  | 
Cc1c(Cl)c2c[n+](Cc3ccccc3)ccc2n1CC(=O)c1cccc(OC(F)(F)F)c1 [AB27483] | 1160 | 7240 | 8240 | 2080 |  |  | 
O=C(Cn1c(Cl)cc2c[n+](Cc3ccccc3)ccc21)c1cccc(OC(F)(F)F)c1 [AB27486] | 34 | 489 | 580 | 280 |  |  | 
O=C(Cn1c(Cl)cc2c[n+](Cc3ccccc3)ccc21)c1cccc(C(F)(F)F)c1 [AB27487] | 31 | 496 | 570 | 220 |  |  | 
O=C(Cn1c(Br)cc2c[n+](Cc3ccccc3)ccc21)c1cccc(OC(F)(F)F)c1 [AB27489] | 23 | 287 | 370 | 170 |  |  | 
Cc1c(C)n(CC(=O)c2cccc(OC(F)(F)F)c2)c2cc[n+](Cc3ccccc3)cc12 [AB27492] | 174 | 1490 | 3750 | 1210 |  |  | 
O=C(Cn1ncc2c[n+](Cc3ccccc3)ccc21)c1cccc(OC(F)(F)F)c1 [AB27498] | 2180 | 11000 | 9890 | 1960 |  |  | 
O=C1c2cc(Cl)ccc2CCC1n1ncc2c[n+](Cc3ccccc3)ccc21 (centres unmarked) [AB27500] | 122 | 904 | 3180 | 620 |  |  | 
O=C1c2cc(Cl)ccc2CCC1n1cnc2c[n+](Cc3ccccc3)ccc21 (centres unmarked) [AB31704] | 264 | 3180 | 3690 | 770 |  |  | 
O=C1c2cc(F)ccc2CCC1n1ncc2c[n+](Cc3ccccc3)ccc21 (centres unmarked) [AB31773] | 110 | 1810 | 2980 | 490 |  |  | 
O=C1c2cc(C(F)(F)F)ccc2CCC1n1ncc2c[n+](Cc3ccccc3)ccc21 (centres unmarked) [AB31774] | 970 | 7920 | 9920 | 1530 |  |  | 
O=C1c2cc(OC(F)(F)F)ccc2CCC1n1ncc2c[n+](Cc3ccccc3)ccc21 (centres unmarked) [AB31775] | 124 | 2090 | 5380 | 1390 |  |  | 
Cc1ccc2c(c1)CCC(n1ncc3c[n+](Cc4ccccc4)ccc31)C2=O (centres unmarked) [AB31777] | 128 | 1990 | 6990 | 1230 |  |  | 
Nc1cc[n+](CC(=O)c2ccccc2)cc1 [AB36527] | 39700 | 36500 | 39100 | 40900 |  |  | 
Nc1cc[n+](CC(=O)c2ccc(OC(F)(F)F)cc2)cc1 [AB36528] | 19500 | 19000 | 15700 | 17900 |  |  | 
OO [Compound H2O2, H2O2] |  |  |  |  | 82 | 79 | 95
